Measurements: US20040209799A1, “JAK/STAT pathway inhibitors and the uses thereof” (priority 2000, published 2004)

Tests used:
[1] = target: T1, ZAP-70 (ζ-associated polypeptide of 70 kDa) protein tyrosine kinase (Homo sapiens, UniProt P43403); experiment: poly (Glu, Tyr) 4:1 ELISA, ZAP-70; type: biochemical
T1 sequence (P43403 1-619): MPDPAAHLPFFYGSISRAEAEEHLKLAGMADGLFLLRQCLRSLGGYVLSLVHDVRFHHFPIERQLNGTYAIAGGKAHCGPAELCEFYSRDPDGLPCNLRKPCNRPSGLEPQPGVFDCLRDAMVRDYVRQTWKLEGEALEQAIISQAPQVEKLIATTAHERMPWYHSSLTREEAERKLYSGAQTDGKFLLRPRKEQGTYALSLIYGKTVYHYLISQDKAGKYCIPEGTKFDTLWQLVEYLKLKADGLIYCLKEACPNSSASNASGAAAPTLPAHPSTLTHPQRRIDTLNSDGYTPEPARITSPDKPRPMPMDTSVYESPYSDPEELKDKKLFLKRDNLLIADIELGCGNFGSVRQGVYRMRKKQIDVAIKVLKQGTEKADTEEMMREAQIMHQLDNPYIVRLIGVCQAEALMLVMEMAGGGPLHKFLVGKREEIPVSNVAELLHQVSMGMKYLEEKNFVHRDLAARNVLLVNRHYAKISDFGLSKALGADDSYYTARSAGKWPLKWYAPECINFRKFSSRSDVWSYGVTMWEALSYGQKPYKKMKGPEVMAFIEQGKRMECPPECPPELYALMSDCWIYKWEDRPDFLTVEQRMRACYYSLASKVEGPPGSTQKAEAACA
Procedure: To further examine the inhibition characteristics of DBH (and its variants) to a variety of cellular components, a poly (Glu, Tyr) 4:1 ELISA was performed. Hymenialdisine (H), DBH (as marine sponge extracts: see Chipman and Faulkner, 1997), and three variant forms of synthetic DBH: the free base form of DBH (DBH-2FB), a trifluoroacetic acid salt form of DBH (DBH-2S), and a methanesulfonic acid salt form of DBH (DBH 1) were solubilized in DMSO, and tested for the ability to inhibit; ZAP-70 (ζ-associated polypeptide of 70 kDa) protein tyrosine kinase, BTK (Bruton's agarnrnaglobulinaemia tyrosine kinase), JAK3 (Janus kinase 3) protein tyrosine kinase, LCK (Lymphoid T-cell protein tyrosine kinase), and IGFR (Insulin-like growth factor receptor) protein tyrosine kinase.
Maxisorb microtiter plates (Nalge Nunc International, Rochester, N.Y.) were coated with 1 mg/ml Poly(Glu,Tyr) 4:1 (Sigma, St. Louis, Mo.) solubilized in phosphate buffered saline (PBS), 0.02% sodium azide. On the day of the assay, microtiter plates were washed 4× with TBS-Tween (25 mM Tris pH 8.0, 150 mM NaCl, 0.05% Tween 20) using a Skatron plate washer (Skatron Instruments, Sterling, Va.). 200 μl of sterile blocking buffer (3% BSA in PBS, 0.02% sodium azide) was added to each well, and the microtiter plates were incubated at 37° C. for 1 hour. The blocking buffer was removed, the plates washed, and various concentrations of inhibitor were added in a 20 μl volume to the wells. 60 μl of the appropriate substrate mix was then added. Substrate mixes were prepared as described in Table 2:
Following addition of the substrate mix, 20 μl of the test protein tyrosine kinase (in 1× assay buffer) was added. Kinase reactions were incubated 30 min at 37° C., followed by washes in the Skatron plate washer. 100 μl of biotinylated PT-66 anti-phosphotyrosine monoclonal antibody (Sigma, St. Louis, Mo.) (diluted 1:4000 in 0.5% BSA, sterile-filtered TBS) was added to each well, and incubated for an additional 30 minutes at 37° C. […] The samples were then read at 450 nm in a plate reader.

[2] = test system: cyclooxygenase II (COX2) mRNA; experiment: northern blot, IL-1β-induced mRNA in human articular chondrocytes: COX2; type: cell-based; settings: 5 μM, 2 ng/ml rhIL-1β, 24 hours, free base or trifluoroacetic acid salt form
Procedure: (§1) Frozen human articular chondrocyte cell strain HC30-0198 (described in Example 1) was thawed, and cultured in monolayer in T150 tissue culture flasks (Corning Costar, Cambridge, Mass.) as described above to 1-5 days post-confluence. Test cultures were rinsed in PBS, and preincubated for 2 hours with 10 ml of serum-free DMEM containing 5 μM DBH (synthetic), in its free base or trifluoroacetic acid salt form. An additional 10 ml of serum-free DMEM containing 5 μM DBH, 4 ng/ml recombinant human interleukin-1β (rhIL-1β; final concentration of 2 ng/ml) (R&D Systems, Minneapolis, Minn.), and 2% antibiotic solution (final concentration of 1%), were then added for 24 hours.
(§2) Two control cultures were run in parallel: one without DBH (rhIL-1β alone), and another without DBH or rhIL-1β.
(§3) Total RNA was fixed to the membrane using a Stratalinker® 1800 UV Crosslinker (Stratagene, La Jolla, Calif.). […]
(§4) The blot was successively washed two times in 2×SSC/0.05% SDS (15 min/wash at room temperature), and two times in 0.1×SSC/0.1% SDS (30 minutes/wash at 65° C.). The blot was allowed to air dry, and the radioactive signal was visualized and quantified using a Fujifilm, BAS-1500 phosphorimager (Fuji, Stamford, Conn.). […]

[3] = test system: tumor necrosis factor-α (TNF-α) mRNA; experiment: northern blot, IL-1β-induced mRNA in human articular chondrocytes: TNF-α; type: cell-based; settings: 5 μM, 2 ng/ml rhIL-1β, 24 hours, free base or trifluoroacetic acid salt form
Procedure: as §1, §2, §3, §4

Row | Inhibition of ZAP-70 ([1]; ec-50 values ranging from hundreds of micromolar to no inhibition (data not shown)) | inhibition of IL-1β-induced upregulation of cyclooxygenase II (COX2) mRNA [2] | IC50 ([1]; values for the four kinases range from 1971 μM to no inhibition, read-out: α-50 value for ZAP-70) [µM] | SMILES | inhibition of IL-1β-induced upregulation of tumor necrosis factor-α (TNF-α) mRNA [3]
1 | weak | inhibit to various degrees | – | NC1=NC(=O)C(=C2CCNC(=O)c3[nH]ccc32)N1 [DBH, 4-(2-amino-4-oxo-2-imidazolin-5-ylidene)-4,5,6,7-tetrahydropyrrolo(2,3-c) azepine-8-one] | inhibit to various degrees
2 | – | – | ≥ 1970 | NC1=NC(=O)C(=C2CCNC(=O)c3[nH]ccc32)N1 [DBH-2FB] | –
